# Test results as given in ChEMBL document CHEMBL1136024, “CCR3 antagonists: a potential new therapy for the treatment of asthma. Discovery and structure-activity relationships” (Bioorg Med Chem Lett, 2002).
# Tests used:
# [1] = biological target: T1, C-C chemokine receptor type 3 (Homo sapiens, UniProt P51677); assay: In vitro inhibition if C-C chemokine receptor type 3 (CCR3) using 150p M [125I]-labeled human eotaxin
# T1 sequence (P51677 whole entry): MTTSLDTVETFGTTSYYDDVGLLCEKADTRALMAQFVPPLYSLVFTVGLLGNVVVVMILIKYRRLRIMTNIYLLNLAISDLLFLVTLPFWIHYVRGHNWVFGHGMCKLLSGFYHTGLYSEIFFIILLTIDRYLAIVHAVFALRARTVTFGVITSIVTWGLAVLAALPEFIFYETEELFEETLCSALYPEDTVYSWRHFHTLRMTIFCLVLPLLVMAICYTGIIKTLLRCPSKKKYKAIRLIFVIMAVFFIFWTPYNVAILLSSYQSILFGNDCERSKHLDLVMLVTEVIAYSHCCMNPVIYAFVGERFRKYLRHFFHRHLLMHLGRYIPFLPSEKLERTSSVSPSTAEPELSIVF
# [2] = biological target: T2, C-C chemokine receptor type 3 (Homo sapiens) (UniProt P51677); assay: In vitro inhibitory activity against C-C chemokine receptor type 3 at 10 uM using 150p M [125I]-labeled human eotaxin
# T2 sequence (whole entry): T1 sequence (P51677 whole entry)
# [3] = biological target: T1, C-C chemokine receptor type 3; assay: In vitro C-C chemokine receptor type 3 receptor activity of compound to inhibit eotaxin induced [Ca2+] mobilization in human Ca2+ mobilization assay
# [4] = biological target: T2, C-C chemokine receptor type 3 (Homo sapiens); conditions: 0.5 uM
# Description: In vitro inhibitory activity of compound against C-C chemokine receptor type 3 at 0.5 uM using 150p M [125I]-labeled human eotaxin as radioligand
# [5] = biological target: T2, C-C chemokine receptor type 3 (Homo sapiens); assay: In vitro inhibitory activity of compound against C-C chemokine receptor type 3 at 5 uM using 150p M [125I]-labeled human eotaxin as radioligand
SMILES,IC50 [1] [µM],inhibition [2] [%],IC50 [3] [µM],inhibition [4] [%],inhibition [5] [%]
COc1cccc(NC(=O)N2CCN(C(=O)OC(C)(C)C)C(CN3CCC(Cc4ccc(F)cc4)CC3)C2)c1 (racemic),0.04,,0.2,,
COc1cccc(NC(=O)N2CCCC(CN3CCC(Cc4ccc(F)cc4)CC3)C2)c1 (racemic),0.05,,0.82,,
CC[C@H](O)[C@H]1C[C@@H](Cc2ccccc2)CCN1CCCNC(=O)Nc1cccc(C(C)=O)c1,,,,40,
COc1cccc(NC(=O)N2CCNC(CN3CCC(Cc4ccc(F)cc4)CC3)C2)c1 (racemic),0.03,,0.14,,
COc1cccc(NC(=O)N2CCOC(CN3CCC(Cc4ccc(F)cc4)CC3)C2)c1 (racemic),0.05,,0.22,,

# Now from value to molecule:
IC50 [1] [µM],inhibition [2] [%],IC50 [3] [µM],inhibition [4] [%],inhibition [5] [%],SMILES
0.5,100,,,,Fc1ccc(CCCN2CC[C@@H]3[C@H](C2)c2cccc4c2N3CC4)cc1
25.6,45,,,,CC(C)(C)C(=O)NCCCCN1CC[C@@H]2[C@H](C1)c1cccc3c1N2CC3
,,,,52,N#Cc1cccc(NC(=O)NCCCN2CCC(Cc3ccc(C(F)(F)F)cc3)CC2)c1
6.6,73,,,,O=C(NCCCCN1CC[C@@H]2[C@H](C1)c1cccc3c1N2CC3)C12CC3CC(CC(C3)C1)C2
